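Assay format: 96-well plates, 48-hour exposure. GI50 is the concentration that inhibits growth by half.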 The source made the active and inactive calls. No stated cut-off is given here; in the data, active = GI50 up to about 1.1 µM and inactive = higher. Where a SMILES comes first, the peptide text is derived from it. [ ]: non-standard residue; d: D form. The star is where a group is joined. Phe(4-NO2) = N[CH](Cc1ccc([N+](=O)[O-])cc1)C(=O)O; Cbz = O=C(OCc1ccccc1)*
Key:
Assay in all cases: NCI tumour cell line growth inhibition, 48 h
ACHN = test system: ACHN
CCRF-CEM = test system: CCRF-CEM
COLO 205 = test system: COLO 205
HCT-116 = test system: HCT-116
HL-60 = test system: HL-60
HOP-62 = test system: HOP-62
M14 = test system: M14
MOLT-4 = test system: MOLT-4
Malme-3M = test system: Malme-3M
NCI-H460 = test system: NCI-H460
RPMI-8226 = test system: RPMI-8226
SK-MEL-28 = test system: SK-MEL-28
SK-MEL-2 = test system: SK-MEL-2
SN12C = test system: SN12C
SNB-19 = test system: SNB-19
SR = test system: SR
U-251 = test system: U-251
UACC-257 = test system: UACC-257
UACC-62 = test system: UACC-62
NCI-H226 = test system: NCI-H226

SMILES	GI50 (ACHN)	GI50 (CCRF-CEM)	GI50 (COLO 205)	GI50 (HCT-116)	GI50 (HL-60)	GI50 (HOP-62)	GI50 (M14)	GI50 (MOLT-4)	GI50 (Malme-3M)	GI50 (NCI-H460)	GI50 (RPMI-8226)	GI50 (SK-MEL-28)	GI50 (SK-MEL-2)	GI50 (SN12C)	GI50 (SNB-19)	GI50 (SR)	GI50 (U-251)	GI50 (UACC-257)	GI50 (UACC-62)	GI50 (NCI-H226)
[N-]=[N+]=Nc1c(Cc2ccccc2)c(=O)oc2ccccc12	38.2 µM (inactive)	12.7 µM (inactive)	36.9 µM (inactive)	> 10 µM (inactive)	90.8 µM (inactive)	20.7 µM (inactive)	25.5 µM (inactive)	5.06 µM (inactive)	38.3 µM (inactive)	18.1 µM (inactive)	33.2 µM (inactive)	> 10 µM (inactive)	28.1 µM (inactive)	> 10 µM (inactive)	27.2 µM (inactive)	33.4 µM (inactive)	24.4 µM (inactive)	45.8 µM (inactive)	> 10 µM (inactive)	–
COC(=O)c1c(OC)cc2cc3c(c(O)c2c1C)C(=O)C1(O)C(=O)C=C(OC)C(OC(=O)CC(C)N)=C1C3=O (stereo not given)	8.65 µM (inactive)	4.74 µM (inactive)	> 100 µM (inactive)	4.28 µM (inactive)	16.4 µM (inactive)	29 µM (inactive)	32.7 µM (inactive)	5.32 µM (inactive)	–	7.05 µM (inactive)	7.6 µM (inactive)	31.3 µM (inactive)	15.2 µM (inactive)	> 100 µM (inactive)	6.41 µM (inactive)	12.9 µM (inactive)	33.5 µM (inactive)	19.4 µM (inactive)	17.1 µM (inactive)	–
CCOC(=O)c1cc2c(cn1)[nH]c1cccc(N)c12	> 100 µM (inactive)	> 100 µM (inactive)	> 100 µM (inactive)	> 100 µM (inactive)	14.6 µM (inactive)	> 100 µM (inactive)	> 100 µM (inactive)	61.5 µM (inactive)	> 100 µM (inactive)	> 100 µM (inactive)	–	> 100 µM (inactive)	–	> 100 µM (inactive)	> 100 µM (inactive)	> 100 µM (inactive)	> 100 µM (inactive)	> 100 µM (inactive)	> 100 µM (inactive)	–
Oc1cccc2cc(Cl)cnc12	8.95 µM (inactive)	2.45 µM (inactive)	31.4 µM (inactive)	4.46 µM (inactive)	1.08 µM (active)	5.77 µM (inactive)	9.06 µM (inactive)	3.78 µM (inactive)	> 30.3 µM (inactive)	6.95 µM (inactive)	4.91 µM (inactive)	58.7 µM (inactive)	40.8 µM (inactive)	7.33 µM (inactive)	> 32.4 µM (inactive)	–	9.08 µM (inactive)	6.27 µM (inactive)	5.51 µM (inactive)	27.4 µM (inactive)
CCCCCCCCCCCCCCCC[N+](C)(C)Cc1ccc(C[N+](C)(C)CCCCCCCCCCCCCCCC)cc1	3.71 µM (inactive)	1.46 µM (inactive)	2.7 µM (inactive)	2.59 µM (inactive)	2.3 µM (inactive)	4.76 µM (inactive)	2.89 µM (inactive)	1.78 µM (inactive)	–	2.51 µM (inactive)	2.63 µM (inactive)	2.3 µM (inactive)	2.04 µM (inactive)	1.95 µM (inactive)	2.52 µM (inactive)	2.39 µM (inactive)	1.96 µM (inactive)	3.4 µM (inactive)	4.13 µM (inactive)	–
O=CN1CCN(C(=O)c2ccc(Cl)cc2Cl)C1=S	> 100 µM (inactive)	27.5 µM (inactive)	> 100 µM (inactive)	> 100 µM (inactive)	20.4 µM (inactive)	> 100 µM (inactive)	> 100 µM (inactive)	> 100 µM (inactive)	> 100 µM (inactive)	> 100 µM (inactive)	20.5 µM (inactive)	> 100 µM (inactive)	> 100 µM (inactive)	43 µM (inactive)	> 100 µM (inactive)	–	> 100 µM (inactive)	> 100 µM (inactive)	> 100 µM (inactive)	> 100 µM (inactive)
OCCN(CCO)c1cccc(N(CCO)CCO)n1	> 100 µM (inactive)	> 100 µM (inactive)	> 100 µM (inactive)	> 100 µM (inactive)	> 100 µM (inactive)	> 100 µM (inactive)	> 100 µM (inactive)	> 100 µM (inactive)	–	> 100 µM (inactive)	> 100 µM (inactive)	> 100 µM (inactive)	> 100 µM (inactive)	> 10 µM (inactive)	> 100 µM (inactive)	> 100 µM (inactive)	> 100 µM (inactive)	> 100 µM (inactive)	58.2 µM (inactive)	–
CCOC(=O)CCC(NC(=O)OCc1ccccc1)C(=O)NC(CCC(=O)OCC)C(=O)NC(Cc1ccc([N+](=O)[O-])cc1)C(=O)NC(CCC(=O)OCC)C(=O)NC(CCC(=O)OCC)C(=O)OCC (stereo not given) (Cbz-E(OEt)E(OEt)[Phe(4-NO2)]E(OEt)E(OEt)-OEt; configuration not given here)	> 100 µM (inactive)	> 100 µM (inactive)	> 100 µM (inactive)	> 100 µM (inactive)	–	> 100 µM (inactive)	–	> 100 µM (inactive)	> 100 µM (inactive)	> 100 µM (inactive)	> 100 µM (inactive)	> 100 µM (inactive)	> 100 µM (inactive)	> 100 µM (inactive)	> 100 µM (inactive)	> 100 µM (inactive)	> 100 µM (inactive)	> 100 µM (inactive)	> 100 µM (inactive)	–
Cc1nc2ccccc2n1Cc1nnc(N)o1	> 100 µM (inactive)	> 100 µM (inactive)	> 100 µM (inactive)	> 100 µM (inactive)	> 100 µM (inactive)	> 100 µM (inactive)	> 100 µM (inactive)	> 100 µM (inactive)	> 100 µM (inactive)	> 100 µM (inactive)	> 100 µM (inactive)	> 100 µM (inactive)	> 100 µM (inactive)	> 100 µM (inactive)	> 100 µM (inactive)	> 100 µM (inactive)	> 100 µM (inactive)	> 100 µM (inactive)	> 100 µM (inactive)	–
COC1CC(OC)C2OC(c3ccccc3)OCC2O1 (stereo not given)	> 100 µM (inactive)	> 100 µM (inactive)	–	> 100 µM (inactive)	> 100 µM (inactive)	> 100 µM (inactive)	> 100 µM (inactive)	> 100 µM (inactive)	> 100 µM (inactive)	> 100 µM (inactive)	–	> 100 µM (inactive)	> 100 µM (inactive)	> 100 µM (inactive)	–	> 100 µM (inactive)	> 100 µM (inactive)	> 100 µM (inactive)	> 100 µM (inactive)	–
CCOC(=O)C1=C(C)N(c2ccc(Cl)cc2)C2(O)C=CC(=O)C3C(=O)N(c4ccccc4)C(=O)C132 (stereo not given)	1.59 µM (inactive)	0.476 µM (active)	1.67 µM (inactive)	1.44 µM (inactive)	2.76 µM (inactive)	2.02 µM (inactive)	1.66 µM (inactive)	1.6 µM (inactive)	1.66 µM (inactive)	2.3 µM (inactive)	1.07 µM (active)	1.51 µM (inactive)	1.78 µM (inactive)	2.3 µM (inactive)	2.18 µM (inactive)	0.292 µM (active)	1.87 µM (inactive)	2.29 µM (inactive)	1.59 µM (inactive)	–
O=C1CCCCC/C1=C\c1cccc(F)c1	35.6 µM (inactive)	24.3 µM (inactive)	> 100 µM (inactive)	54.6 µM (inactive)	17.1 µM (inactive)	> 100 µM (inactive)	43.4 µM (inactive)	24.8 µM (inactive)	> 100 µM (inactive)	54.5 µM (inactive)	19.8 µM (inactive)	> 100 µM (inactive)	> 100 µM (inactive)	> 100 µM (inactive)	> 100 µM (inactive)	13.5 µM (inactive)	48.1 µM (inactive)	59 µM (inactive)	67.3 µM (inactive)	–
CCOC(=O)c1[nH]c(-c2[nH]c(-c3[nH]c(-c4[nH]c(C(=O)OCC)c(C)c4C(=O)OCC)c(C(=O)OCC)c3C)c(C)c2C(=O)OCC)c(C(=O)OCC)c1C	> 100 µM (inactive)	> 100 µM (inactive)	> 100 µM (inactive)	> 100 µM (inactive)	> 100 µM (inactive)	> 100 µM (inactive)	> 100 µM (inactive)	> 100 µM (inactive)	> 100 µM (inactive)	> 100 µM (inactive)	> 100 µM (inactive)	> 100 µM (inactive)	> 100 µM (inactive)	> 100 µM (inactive)	> 100 µM (inactive)	–	> 100 µM (inactive)	> 100 µM (inactive)	> 100 µM (inactive)	> 100 µM (inactive)
COc1ccc(-c2c3c(n(C4OC(CO)C(O)C(O)C4O)c(=S)c2C#N)CCC3)cc1 (stereo not given)	38.5 µM (inactive)	32.6 µM (inactive)	68.9 µM (inactive)	49.2 µM (inactive)	34.7 µM (inactive)	40 µM (inactive)	36.2 µM (inactive)	28.8 µM (inactive)	57.8 µM (inactive)	45.2 µM (inactive)	49.5 µM (inactive)	35.1 µM (inactive)	58.5 µM (inactive)	37 µM (inactive)	37.7 µM (inactive)	38.4 µM (inactive)	37.1 µM (inactive)	> 100 µM (inactive)	42 µM (inactive)	–
Cc1cc(S(=O)(=O)/N=C2\NCCN2Cc2ccccc2)c(S)cc1Cl	> 100 µM (inactive)	7.35 µM (inactive)	> 100 µM (inactive)	> 100 µM (inactive)	> 100 µM (inactive)	76.2 µM (inactive)	> 100 µM (inactive)	47.2 µM (inactive)	43.7 µM (inactive)	> 100 µM (inactive)	10.5 µM (inactive)	> 100 µM (inactive)	> 100 µM (inactive)	> 100 µM (inactive)	> 100 µM (inactive)	–	> 100 µM (inactive)	> 100 µM (inactive)	72.1 µM (inactive)	61.2 µM (inactive)
